This assay deals with beta-TC6 cells. Briefly: Insulin HTRF assay (relative activity Ar) in beta-TC6 cells. Particulars: Mus musculus, Beta-TC6, 4 h, insulin HTRF, supernatant of beta-TC6 cells, incubation with test compound at 37°C for 2, 3, 4h; read-out: Ar (relative activity). Format: cell-based, mouse. The method in brief:
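beta-TC6 cells (15k/well, seeded 24 or 48 h) washed, then exposed to compound in induction buffer (0.5% DMSO final) for 2, 3 or 4 h at 37°C.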

SMILES strings stand for the structures. Bounds are passed on as bounds.

Take `COc1ccc(Nc2nccc3[nH]c(-c4ccc(OC)c(OC)c4)nc23)cc1` [Compound 345, 2-(3,4-dimethoxyphenyl)-N-(4-methoxyphenyl)-1H-imidazo[4,5-c]pyridin-4-amine]: the Emax is above 100%.
As for `CNc1nc2cnc(Nc3cc(OC)c(OC)c(OC)c3)cc2n1-c1cc(OC)c(OC)c(OC)c1` [Compound 482, N2-methyl-N6,1-bis(3,4,5-trimethoxyphenyl)imidazo[4,5-c]pyridine-2,6-diamine], the Emax was 30 to 50%.
Next, `COCCNC(=O)c1cccc(-c2nc3c(Nc4ccccc4)nccc3[nH]2)c1` [Compound 387, 3-(4-anilino-1H-imidazo[4,5-c]pyridin-2-yl)-N-(2-methoxyethyl)benzamide]: 30 to 50%; `CN1CCN(c2ccc(Nc3nccc4[nH]c(-c5cccc(F)c5)cc34)cc2)CC1` [Compound 201, 2-(3-fluorophenyl)-N-[4-(4-methylpiperazin-1-yl)phenyl]-1H-pyrrolo[3,2-c]pyridin-4-amine]: 30 to 50%; `Fc1cccc(-c2cc3c(cn2)ncn3-c2ccccc2)c1` [Compound 733, 6-(3-fluorophenyl)-1-phenyl-imidazo[4,5-c]pyridine]: 30 to 50%.
To `CNc1nc2cnc(Nc3cc(OC)c(OC)c(OC)c3)cc2n1-c1ccccc1` [Compound 502, N2-methyl-1-phenyl-N6-(3,4,5-trimethoxyphenyl)imidazo[4,5-c]pyridine-2,6-diamine] belongs 50 to 100%.
Next, `CNc1nc2cnc(-c3ccc(F)c(Cl)c3)cc2n1-c1ccccc1` [Compound 784, 6-(3-chloro-4-fluoro-phenyl)-N-methyl-1-phenyl-imidazo[4,5-c]pyridin-2-amine]: 0 to 30%.
On to `N#Cc1ccc(Nc2cc3[nH]c(-c4ccccn4)cc3cn2)cc1` [Compound 68, 4-[[2-(2-pyridyl)-1H-pyrrolo[3,2-c]pyridin-6-yl]amino]benzonitrile], for which the Emax lay in the range of 50 to 100%.
Next, `Cn1cc(-c2cc3cnc(N4CCOCC4)cc3n2Cc2ccccc2)cn1` [Compound 155, 4-[1-benzyl-2-(1-methylpyrazol-4-yl)pyrrolo[3,2-c]pyridin-6-yl]morpholine]: 50 to 100%; `Cn1c(Nc2ccccc2)nc2cnc(Nc3ccccn3)cc21` [Compound 637, 1-methyl-N2-phenyl-N6-(2-pyridyl)imidazo[4,5-c]pyridine-2,6-diamine]: 30 to 50%; `COc1cccc(-c2cc3c(Nc4ccc(N5CCN(C)CC5)cc4)nccc3[nH]2)c1` [Compound 310, 2-(3-methoxyphenyl)-N-[4-(4-methylpiperazin-1-yl)phenyl]-1H-pyrrolo[3,2-c]pyridin-4-amine]: 50 to 100%.
To `CNc1nc2cnc(Nc3cccc(N(C)C)c3)cc2n1-c1cccc(F)c1` [Compound 682, N6-[3-(dimethylamino)phenyl]-1-(3-fluorophenyl)-N2-methyl-imidazo[4,5-c]pyridine-2,6-diamine] belongs 50 to 100%.
To `Cn1cncc1-c1cc2cnc(Nc3ccc(F)cc3)cc2[nH]1` [Compound 106, N-(4-fluorophenyl)-2-(3-methylimidazol-4-yl)-1H-pyrrolo[3,2-c]pyridin-6-amine] belongs 50 to 100%; to `CN(C)c1cccc(-c2cc3c(cn2)nc(NCC2CC2)n3C)c1` [Compound 828, N-(cyclopropylmethyl)-6-[3-(dimethylamino)phenyl]-1-methyl-imidazo[4,5-c]pyridin-2-amine], 30 to 50%.
Take `Cn1cc(-c2cc3cnc(Nc4cccnc4)cc3n2C)cn1` [Compound 131, 1-methyl-2-(1-methylpyrazol-4-yl)-N-(3-pyridyl)pyrrolo[3,2-c]pyridin-6-amine]: the Emax is above 100%.
Next, `CNc1nc2cnc(-c3cccc(N(C)C)c3)cc2n1-c1cccc(F)c1` [Compound 683, 6-[3-(dimethylamino)phenyl]-1-(3-fluorophenyl)-N-methyl-imidazo[4,5-c]pyridin-2-amine]: 30 to 50%; `Cn1c(-c2cccc(Cl)c2)cc2c(Nc3ccncn3)nccc21` [Compound 316, 2-(3-chlorophenyl)-1-methyl-N-pyrimidin-4-yl-pyrrolo[3,2-c]pyridin-4-amine]: 30 to 50%.
To `COc1ncccc1-c1cc2c(cn1)nc(NCC1CCCO1)n2C` (stereo not drawn) [Compound 644, 6-(2-methoxy-3-pyridyl)-1-methyl-N-(tetrahydrofuran-2-ylmethyl)imidazo[4,5-c]pyridin-2-amine] belongs 50 to 100%; to `CNc1nc2cnc(Nc3ccc(C(N)=O)cc3)cc2n1-c1cccc(F)c1` [Compound 681, 4-[[1-(3-fluorophenyl)-2-(methylamino)imidazo[4,5-c]pyridin-6-yl]amino]benzamide], 50 to 100%.
To `COCCNc1nc2cnc(-c3ccc(OC)cc3C)cc2n1C` [Compound 859, N-(2-methoxyethyl)-6-(4-methoxy-2-methyl-phenyl)-1-methyl-imidazo[4,5-c]pyridin-2-amine] belongs 30 to 50%.
On to `COc1cc(Nc2nc3cnc(-c4cccc(F)c4)cc3n2C)cc(OC)c1OC` [Compound 814, 6-(3-fluorophenyl)-1-methyl-N-(3,4,5-trimethoxyphenyl)imidazo[4,5-c]pyridin-2-amine], for which the Emax is 0 to 30%.
To `COc1ccc(-c2nc3cnc(Nc4ccc5c(c4)OCO5)cc3n2C)cc1OC` [Compound 722, N-(1,3-benzodioxol-5-yl)-2-(3,4-dimethoxyphenyl)-1-methyl-imidazo[4,5-c]pyridin-6-amine] belongs 30 to 50%.
Next, `COc1cccc(-c2cc3c(Nc4ccc(OC)c(O)c4)nccc3[nH]2)c1` [Compound 312, 2-methoxy-5-[[2-(3-methoxyphenyl)-1H-pyrrolo[3,2-c]pyridin-4-yl]amino]phenol]: 50 to 100%.
In the case of `Oc1cccc(-c2nc3c(N4CCOCC4)nccc3[nH]2)c1` [Compound 363, 3-(4-morpholino-1H-imidazo[4,5-c]pyridin-2-yl)phenol], the Emax was 30 to 50%.
Next, `CNc1nc2cnc(Nc3ccccc3)cc2n1Cc1ccc(OC)c(OC)c1` [Compound 667, 1-[(3,4-dimethoxyphenyl)methyl]-N2-methyl-N6-phenyl-imidazo[4,5-c]pyridine-2,6-diamine]: 30 to 50%; `CNc1nc2cnc(Nc3cccc(C(C)=O)c3)cc2n1-c1ccccc1` [Compound 517, 1-[3-[[2-(methylamino)-1-phenyl-imidazo[4,5-c]pyridin-6-yl]amino]phenyl]ethanone]: 50 to 100%.
To `CS(=O)(=O)Nc1cccc(Nc2nccc3[nH]c(-c4ccsc4)cc23)c1` [Compound 265, N-[3-[[2-(3-thienyl)-1H-pyrrolo[3,2-c]pyridin-4-yl]amino]phenyl]methanesulfonamide] belongs 50 to 100%; to `c1ccc(-c2cc3cnc(Nc4ccncc4)cc3[nH]2)cc1` [Compound 178, 2-phenyl-N-(4-pyridyl)-1H-pyrrolo[3,2-c]pyridin-6-amine], 30 to 50%; to `CNc1nc2cnc(Nc3ccc(S(C)(=O)=O)cc3)cc2n1-c1ccccc1` [Compound 518, N2-methyl-N6-(4-methylsulfonylphenyl)-1-phenyl-imidazo[4,5-c]pyridine-2,6-diamine], 50 to 100%.
Take `CS(=O)(=O)c1ccc(Nc2cc3c(cn2)ncn3CC2CC2)cc1` [Compound 696, 1-(cyclopropylmethyl)-N-(4-methylsulfonylphenyl)imidazo[4,5-c]pyridin-6-amine]: the Emax was in the range of 30 to 50%.
Regarding `CN(C)C(=O)c1ccc(Nc2cc3c(cn2)nc(-c2ccco2)n3C)cc1` [Compound 711, 4-[[2-(2-furyl)-1-methyl-imidazo[4,5-c]pyridin-6-yl]amino]-N,N-dimethyl-benzamide], the Emax fell in the range of 50 to 100%.
To `Cn1c(NCc2ccccc2F)nc2cnc(-c3ccc(F)cc3)cc21` [Compound 657, 6-(4-fluorophenyl)-N-[(2-fluorophenyl)methyl]-1-methyl-imidazo[4,5-c]pyridin-2-amine] belongs 30 to 50%.
Next, `Cn1c(-c2ccco2)nc2cnc(Nc3ccccc3Cl)cc21` [Compound 710, N-(2-chlorophenyl)-2-(2-furyl)-1-methyl-imidazo[4,5-c]pyridin-6-amine]: 30 to 50%; `CS(=O)(=O)Nc1cccc(Nc2nccc3[nH]c(-c4cccc(F)c4)cc23)c1` [Compound 205, N-[3-[[2-(3-fluorophenyl)-1H-pyrrolo[3,2-c]pyridin-4-yl]amino]phenyl]methanesulfonamide]: 50 to 100%.
In the case of `COc1ccc(Nc2cc3c(cn2)cc(-c2cccnc2)n3C)cc1` [Compound 91, N-(4-methoxyphenyl)-1-methyl-2-(3-pyridyl)pyrrolo[3,2-c]pyridin-6-amine], the Emax is 50 to 100%.
To `c1ccc(Cn2cnc3c(NC4CCCCC4)nccc32)cc1` [Compound 449, 1-benzyl-N-cyclohexyl-imidazo[4,5-c]pyridin-4-amine] belongs 50 to 100%.
Next, `CNc1nc2cnc(Nc3ccc(C(N)=O)cc3)cc2n1-c1ccccc1` [Compound 504, 4-[[2-(methylamino)-1-phenyl-imidazo[4,5-c]pyridin-6-yl]amino]benzamide]: 50 to 100%.
In the case of `CNc1nc2cnc(-c3ccccc3OC)cc2n1-c1ccccc1` [Compound 782, 6-(2-methoxyphenyl)-N-methyl-1-phenyl-imidazo[4,5-c]pyridin-2-amine], the Emax fell in the range of 0 to 30%.
With `Fc1ccc(-c2nc3ccncc3[nH]2)cc1` [Compound 775, 2-(4-fluorophenyl)-3H-imidazo[4,5-c]pyridine], the Emax was 0 to 30%.
To `Cn1c(-c2ccccc2)cc2c(Nc3ccc(C(N)=O)cc3)nccc21` [Compound 325, 4-[(1-methyl-2-phenyl-pyrrolo[3,2-c]pyridin-4-yl)amino]benzamide] belongs 30 to 50%.
On to `COc1ccc(Nc2nccc3[nH]c(-c4ccc(C)cc4)nc23)cn1` [Compound 379, N-(6-methoxy-3-pyridyl)-2-(p-tolyl)-1H-imidazo[4,5-c]pyridin-4-amine], for which the Emax is 50 to 100%.
Next, `CNc1nc2cnc(Nc3ccccc3)cc2n1Cc1cccnc1` [Compound 562, N2-methyl-N6-phenyl-1-(3-pyridylmethyl)imidazo[4,5-c]pyridine-2,6-diamine]: 30 to 50%.

For the origin of these results see patent EP2818472A1, “Imidazo[4,5-c]pyridine and pyrrolo[3,2-c]pyridine compounds as G-protein-coupled receptor kinase 5 (GRK5) modulators” (Max-Planck-Gesellschaft zur Förderung der Wissenschaften …, priority 2013, dated 2014).
